Data: PMC11480411, “Mucosal sugars delineate pyrazine vs pyrazinone autoinducer signaling in Klebsiella oxytoca” (Nature Communications, 2024)
Several values for one entry are separate records, joined by “and”; a condition that tells them apart may be missing. Equal entries are not always repeated.

Legend:
Assay type in all cases: cell-based
ADORA2B = target: T1, ADORA2B (Homo sapiens, UniProt P29275); test: PRESTO-Tango GPCR screen; settings: 100 µM
T1 construct: purchased PRESTO-Tango GPCR kit (Roth lab / Addgene)
Protocol: (§1) The PRESTO-Tango analyses were performed as previously published. Briefly, HTLA cells, a HEK293 cell line that stably expresses β-arrestin-TEV and tTA-Luciferase (a kind gift from Gilad Barnea, Brown University), were plated in 96-well tissue culture plates (Eppendorf) in DMEM containing 10% FBS and 1% Penicillin/Streptomycin. One day after plating (after reaching approximately 90% confluence), 200 ng per well GPCR-Tango plasmids[37] in 20 μL DMEM were individually mixed with 400 ng polyethylenimine (Polysciences) in an equal volume of DMEM and incubated for 20 min at room temperature before adding the transfection mixture to the HTLA cells. 16-24 h after transfection, medium was replaced with 180 μL fresh DMEM containing 1% Penicillin/Streptomycin and 10 mM HEPES and 20 μL of 3 or 3-Homo to reach a final concentration of 100 μM. Supernatants were aspirated 20 h after stimulation and 50 μl per well of Bright-Glo solution (Promega) diluted 20-fold with PBS containing 20 mM HEPES was added into each well. After 15 min incubation at room temperature, luminescence was quantified using a Spectramax i3x microplate reader (Molecular Devices). Activation fold for each sample was calculated by dividing relative luminescence units (RLU) for each condition by RLUs from PBS control. Dose response curves of each chemical were performed in a similar way with varying the ligand concentration from 10^−4 M to 10^−15 M.

APJ = target: T2, APJ (Homo sapiens, UniProt P35414); test: PRESTO-Tango GPCR screen; settings: 100 µM
T2 construct: purchased PRESTO-Tango GPCR kit (Roth lab / Addgene)
Protocol: as §1

AVPR1A = target: T3, AVPR1A (Homo sapiens, UniProt P37288); test: PRESTO-Tango GPCR screen; settings: 100 µM
T3 construct: purchased PRESTO-Tango GPCR kit (Roth lab / Addgene)
Protocol: as §1

CCKAR = target: T4, CCKAR (Homo sapiens, UniProt P32238); test: PRESTO-Tango GPCR screen; settings: 100 µM
T4 construct: purchased PRESTO-Tango GPCR kit (Roth lab / Addgene)
Protocol: as §1

CRHR1 = target: T5, CRHR1 (Homo sapiens, UniProt P34998); test: PRESTO-Tango GPCR screen; settings: 100 µM
T5 construct: purchased PRESTO-Tango GPCR kit (Roth lab / Addgene)
Protocol: as §1

FPR3 = target: T6, FPR3 (Homo sapiens, UniProt P25089); test: PRESTO-Tango GPCR screen; settings: 100 µM
T6 construct: purchased PRESTO-Tango GPCR kit (Roth lab / Addgene)
Protocol: as §1

GPR116 = target: T7, GPR116 (Homo sapiens, UniProt Q8IZF2); test: PRESTO-Tango GPCR screen; settings: 100 µM
T7 construct: purchased PRESTO-Tango GPCR kit (Roth lab / Addgene)
Protocol: as §1

GPR133 = target: T8, GPR133 (Homo sapiens, UniProt Q6QNK2); test: PRESTO-Tango GPCR screen; settings: 100 µM
T8 construct: purchased PRESTO-Tango GPCR kit (Roth lab / Addgene)
Protocol: as §1

GPR68 = target: T9, GPR68 (Homo sapiens, UniProt Q15743); test: PRESTO-Tango GPCR screen; settings: 100 µM
T9 construct: purchased PRESTO-Tango GPCR kit (Roth lab / Addgene)
Protocol: as §1

HTR1B = target: T10, HTR1B (Homo sapiens, UniProt P28222); test: PRESTO-Tango GPCR screen; settings: 100 µM
T10 construct: purchased PRESTO-Tango GPCR kit (Roth lab / Addgene)
Protocol: as §1

MAS1 = target: T11, MAS1 (Homo sapiens, UniProt P04201); test: PRESTO-Tango GPCR screen; settings: 100 µM
T11 construct: purchased PRESTO-Tango GPCR kit (Roth lab / Addgene)
Protocol: as §1

MRGPRF = target: T12, MRGPRF (Homo sapiens, UniProt Q96AM1); test: PRESTO-Tango GPCR screen; settings: 100 µM
T12 construct: purchased PRESTO-Tango GPCR kit (Roth lab / Addgene)
Protocol: as §1

NPY4R = target: T13, NPY4R (Homo sapiens, UniProt P50391); test: PRESTO-Tango GPCR screen; settings: 100 µM
T13 construct: purchased PRESTO-Tango GPCR kit (Roth lab / Addgene)
Protocol: as §1

P2RY2 = target: T14, P2RY2 (Homo sapiens, UniProt P41231); test: PRESTO-Tango GPCR screen; settings: 100 µM
T14 construct: purchased PRESTO-Tango GPCR kit (Roth lab / Addgene)
Protocol: as §1

PTGER4 = target: T15, PTGER4 (Homo sapiens, UniProt P35408); test: PRESTO-Tango GPCR screen; settings: 100 µM
T15 construct: purchased PRESTO-Tango GPCR kit (Roth lab / Addgene)
Protocol: as §1

RXFP1 = target: T16, RXFP1 (Homo sapiens, UniProt Q9HBX9); test: PRESTO-Tango GPCR screen; settings: 100 µM
T16 construct: purchased PRESTO-Tango GPCR kit (Roth lab / Addgene)
Protocol: as §1

S1PR3 = target: T17, S1PR3 (Homo sapiens, UniProt Q99500); test: PRESTO-Tango GPCR screen; settings: 100 µM
T17 construct: purchased PRESTO-Tango GPCR kit (Roth lab / Addgene)
Protocol: as §1

SCTR = target: T18, SCTR (Homo sapiens, UniProt P47872); test: PRESTO-Tango GPCR screen; settings: 100 µM
T18 construct: purchased PRESTO-Tango GPCR kit (Roth lab / Addgene)
Protocol: as §1

TAAR8 = target: T19, TAAR8 (Homo sapiens, UniProt Q969N4); test: PRESTO-Tango GPCR screen; settings: 100 µM
T19 construct: purchased PRESTO-Tango GPCR kit (Roth lab / Addgene)
Protocol: as §1

HRH1 = target: T20, HRH1 (Homo sapiens, UniProt P35367); test: PRESTO-Tango GPCR screen and dose-response; settings: for HRH1 dose-response raw reporter signal (Fig. 5b source data): replicate wells
T20 construct: expressed in transfected cells; host or cells: HTLA cells (HEK293 line stably expressing β-arrestin-TEV and tTA-Luciferase)
Method in brief: (§2)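 HEK293 HTLA line (stable β-arrestin-TEV, tTA-luciferase); receptor-Tango transient transfection, PEI; 20 h compound exposure at 100 μM final; luciferase luminescence; fold vs PBS. Dose curves 10^−4–10^−15 M.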

HRH2 = target: T21, HRH2 (Homo sapiens, UniProt P25021); test: PRESTO-Tango GPCR screen and dose-response; settings: for HRH2 dose-response raw reporter signal (Fig. 5b source data): replicate wells
T21 construct: expressed in transfected cells; host or cells: HTLA cells (HEK293 line stably expressing β-arrestin-TEV and tTA-Luciferase)
Method in brief: as §2

T21 sequence (P25021 whole entry): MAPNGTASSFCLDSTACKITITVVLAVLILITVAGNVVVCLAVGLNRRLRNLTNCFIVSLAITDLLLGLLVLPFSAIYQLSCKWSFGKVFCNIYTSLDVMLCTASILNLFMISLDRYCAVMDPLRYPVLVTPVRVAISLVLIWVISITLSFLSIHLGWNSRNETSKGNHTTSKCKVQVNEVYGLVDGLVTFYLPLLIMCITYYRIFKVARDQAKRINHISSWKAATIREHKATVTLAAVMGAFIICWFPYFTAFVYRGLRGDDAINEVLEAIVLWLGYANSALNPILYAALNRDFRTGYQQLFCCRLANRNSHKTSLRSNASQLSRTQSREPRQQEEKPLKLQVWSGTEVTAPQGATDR
T20 sequence (P35367 whole entry): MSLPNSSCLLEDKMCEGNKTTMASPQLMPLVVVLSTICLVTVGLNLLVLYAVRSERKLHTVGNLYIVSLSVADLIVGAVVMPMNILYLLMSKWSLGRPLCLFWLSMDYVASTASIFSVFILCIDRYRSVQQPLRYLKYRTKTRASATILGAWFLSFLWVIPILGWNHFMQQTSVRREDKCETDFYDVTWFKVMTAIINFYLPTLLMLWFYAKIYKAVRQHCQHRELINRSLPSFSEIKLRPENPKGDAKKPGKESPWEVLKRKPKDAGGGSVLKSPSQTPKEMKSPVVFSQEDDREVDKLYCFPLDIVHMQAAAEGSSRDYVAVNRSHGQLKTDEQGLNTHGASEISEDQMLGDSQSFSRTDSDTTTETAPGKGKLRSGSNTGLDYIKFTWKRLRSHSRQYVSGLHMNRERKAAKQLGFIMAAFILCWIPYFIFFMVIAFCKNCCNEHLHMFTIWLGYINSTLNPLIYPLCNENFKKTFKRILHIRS
T1 sequence (P29275 whole entry): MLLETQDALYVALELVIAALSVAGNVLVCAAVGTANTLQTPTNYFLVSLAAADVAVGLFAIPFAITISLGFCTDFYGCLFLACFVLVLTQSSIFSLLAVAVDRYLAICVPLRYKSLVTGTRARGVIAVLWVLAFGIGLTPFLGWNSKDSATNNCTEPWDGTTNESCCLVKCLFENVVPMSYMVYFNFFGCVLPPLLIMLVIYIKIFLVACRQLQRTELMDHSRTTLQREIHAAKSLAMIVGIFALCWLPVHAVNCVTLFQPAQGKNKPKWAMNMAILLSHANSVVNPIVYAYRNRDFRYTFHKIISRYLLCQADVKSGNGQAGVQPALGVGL
T7 sequence (Q8IZF2 22-1346): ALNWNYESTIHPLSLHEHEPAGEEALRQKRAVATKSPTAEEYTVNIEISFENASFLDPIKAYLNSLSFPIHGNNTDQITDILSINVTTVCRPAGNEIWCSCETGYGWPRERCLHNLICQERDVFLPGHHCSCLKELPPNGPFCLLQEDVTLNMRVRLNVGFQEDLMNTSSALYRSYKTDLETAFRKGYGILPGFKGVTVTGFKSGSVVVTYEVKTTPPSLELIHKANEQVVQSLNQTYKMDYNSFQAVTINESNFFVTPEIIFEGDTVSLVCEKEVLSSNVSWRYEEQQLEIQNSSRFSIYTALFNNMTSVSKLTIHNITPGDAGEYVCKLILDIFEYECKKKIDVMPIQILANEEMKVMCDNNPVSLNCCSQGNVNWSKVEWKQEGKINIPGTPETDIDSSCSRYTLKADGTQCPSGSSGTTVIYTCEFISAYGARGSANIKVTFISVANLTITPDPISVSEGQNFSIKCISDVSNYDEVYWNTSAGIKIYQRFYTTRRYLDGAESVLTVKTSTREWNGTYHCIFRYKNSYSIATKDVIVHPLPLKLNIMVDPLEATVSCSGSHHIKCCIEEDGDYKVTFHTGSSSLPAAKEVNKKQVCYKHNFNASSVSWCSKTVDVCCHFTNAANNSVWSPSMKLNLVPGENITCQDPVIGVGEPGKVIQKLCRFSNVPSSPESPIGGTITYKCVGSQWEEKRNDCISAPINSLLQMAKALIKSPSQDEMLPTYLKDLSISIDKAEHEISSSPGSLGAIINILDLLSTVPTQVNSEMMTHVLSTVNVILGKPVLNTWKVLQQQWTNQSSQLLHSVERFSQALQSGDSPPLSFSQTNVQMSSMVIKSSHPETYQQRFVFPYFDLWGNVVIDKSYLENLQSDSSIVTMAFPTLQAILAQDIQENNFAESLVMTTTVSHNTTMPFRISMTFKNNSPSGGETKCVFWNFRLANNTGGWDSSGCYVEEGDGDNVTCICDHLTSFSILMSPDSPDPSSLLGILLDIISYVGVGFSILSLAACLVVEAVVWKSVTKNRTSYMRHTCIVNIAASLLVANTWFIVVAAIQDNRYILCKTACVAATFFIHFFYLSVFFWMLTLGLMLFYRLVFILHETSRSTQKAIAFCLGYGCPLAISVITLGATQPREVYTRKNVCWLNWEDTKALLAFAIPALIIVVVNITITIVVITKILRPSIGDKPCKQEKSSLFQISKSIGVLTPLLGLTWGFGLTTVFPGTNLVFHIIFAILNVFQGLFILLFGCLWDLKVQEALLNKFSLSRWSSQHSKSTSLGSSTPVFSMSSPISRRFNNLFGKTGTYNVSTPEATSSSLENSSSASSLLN
T19 sequence (Q969N4 whole entry): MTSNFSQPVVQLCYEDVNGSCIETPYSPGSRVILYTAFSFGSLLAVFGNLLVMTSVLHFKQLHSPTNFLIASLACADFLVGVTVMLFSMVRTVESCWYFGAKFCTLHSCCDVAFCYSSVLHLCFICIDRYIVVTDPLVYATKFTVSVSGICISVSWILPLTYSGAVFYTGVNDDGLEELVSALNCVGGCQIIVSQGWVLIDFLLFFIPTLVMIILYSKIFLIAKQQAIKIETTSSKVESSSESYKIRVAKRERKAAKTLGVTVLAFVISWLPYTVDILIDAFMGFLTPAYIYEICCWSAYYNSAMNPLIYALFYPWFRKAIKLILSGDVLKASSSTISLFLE
T17 sequence (Q99500 whole entry): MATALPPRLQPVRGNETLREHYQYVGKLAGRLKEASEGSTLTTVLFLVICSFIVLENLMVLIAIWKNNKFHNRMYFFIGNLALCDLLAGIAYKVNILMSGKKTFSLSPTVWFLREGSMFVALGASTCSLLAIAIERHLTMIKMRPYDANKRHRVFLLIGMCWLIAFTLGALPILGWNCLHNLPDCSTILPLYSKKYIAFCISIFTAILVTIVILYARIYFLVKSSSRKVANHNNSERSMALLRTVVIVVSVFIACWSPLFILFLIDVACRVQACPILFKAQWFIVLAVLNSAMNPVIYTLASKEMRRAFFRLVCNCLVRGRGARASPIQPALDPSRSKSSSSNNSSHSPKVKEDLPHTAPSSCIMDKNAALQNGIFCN
T13 sequence (P50391 whole entry): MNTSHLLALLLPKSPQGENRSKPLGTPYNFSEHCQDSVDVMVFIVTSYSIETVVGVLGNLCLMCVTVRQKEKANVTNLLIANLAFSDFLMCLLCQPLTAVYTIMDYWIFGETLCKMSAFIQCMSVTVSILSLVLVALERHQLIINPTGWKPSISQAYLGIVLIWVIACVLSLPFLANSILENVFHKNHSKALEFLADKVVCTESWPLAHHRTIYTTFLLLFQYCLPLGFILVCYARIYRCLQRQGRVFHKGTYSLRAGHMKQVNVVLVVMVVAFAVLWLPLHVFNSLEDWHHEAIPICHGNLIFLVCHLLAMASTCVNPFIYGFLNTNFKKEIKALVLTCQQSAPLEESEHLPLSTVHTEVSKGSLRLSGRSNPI
T3 sequence (P37288 whole entry): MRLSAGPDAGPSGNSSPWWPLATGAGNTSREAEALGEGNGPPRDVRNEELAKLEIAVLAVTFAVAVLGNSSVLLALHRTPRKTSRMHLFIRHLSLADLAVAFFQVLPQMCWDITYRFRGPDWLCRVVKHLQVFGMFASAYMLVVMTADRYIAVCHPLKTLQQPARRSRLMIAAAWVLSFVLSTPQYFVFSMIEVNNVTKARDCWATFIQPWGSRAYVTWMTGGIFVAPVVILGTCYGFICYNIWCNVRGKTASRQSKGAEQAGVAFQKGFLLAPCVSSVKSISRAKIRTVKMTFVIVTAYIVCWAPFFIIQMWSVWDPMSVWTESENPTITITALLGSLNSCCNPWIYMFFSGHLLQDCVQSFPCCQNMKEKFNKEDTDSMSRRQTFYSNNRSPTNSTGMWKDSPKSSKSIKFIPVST
T5 sequence (P34998 24-415): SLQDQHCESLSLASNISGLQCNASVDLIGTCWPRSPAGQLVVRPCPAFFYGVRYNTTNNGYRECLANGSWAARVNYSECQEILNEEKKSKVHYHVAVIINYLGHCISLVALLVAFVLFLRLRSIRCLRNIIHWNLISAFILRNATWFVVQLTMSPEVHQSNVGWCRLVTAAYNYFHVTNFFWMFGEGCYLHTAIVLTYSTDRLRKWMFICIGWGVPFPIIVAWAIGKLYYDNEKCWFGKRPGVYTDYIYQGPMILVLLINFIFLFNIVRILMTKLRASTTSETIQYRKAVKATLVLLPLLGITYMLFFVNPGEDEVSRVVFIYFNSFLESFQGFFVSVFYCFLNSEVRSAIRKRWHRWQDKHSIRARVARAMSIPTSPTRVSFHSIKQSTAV
T2 sequence (P35414 whole entry): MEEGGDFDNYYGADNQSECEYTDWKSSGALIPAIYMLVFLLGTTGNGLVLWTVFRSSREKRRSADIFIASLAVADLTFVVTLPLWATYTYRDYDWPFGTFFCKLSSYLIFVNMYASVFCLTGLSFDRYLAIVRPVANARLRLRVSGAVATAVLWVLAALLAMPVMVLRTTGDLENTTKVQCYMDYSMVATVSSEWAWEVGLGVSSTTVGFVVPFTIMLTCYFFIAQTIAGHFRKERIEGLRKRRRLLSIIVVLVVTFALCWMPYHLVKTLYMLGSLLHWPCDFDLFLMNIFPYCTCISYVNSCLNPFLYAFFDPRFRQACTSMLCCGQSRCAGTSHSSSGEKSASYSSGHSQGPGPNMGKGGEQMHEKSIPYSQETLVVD

For CC(C)Cc1ncc(CCCNC(=N)N)[nH]c1=O [compound 3], the “GPCR activation (heatmap value)” value (ADORA2B) was 0.06134, the “GPCR activation (heatmap value)” value (APJ) was 0.6044 and the “GPCR activation (heatmap value)” value (AVPR1A) was 0.9724. For the same molecule, the “GPCR activation (heatmap value)” value (CCKAR) was 0.06622, the “GPCR activation (heatmap value)” value (CRHR1) was -0.3752 and the “GPCR activation (heatmap value)” value (FPR3) was 0.01401. For the same molecule, the “GPCR activation (heatmap value)” value (GPR116) was -0.4037, the “GPCR activation (heatmap value)” value (GPR133) was -0.6324 and the “GPCR activation (heatmap value)” value (GPR68) was 0.3673. For the same molecule, the “GPCR activation (heatmap value)” value (HTR1B) was 0.5899, the “GPCR activation (heatmap value)” value (MAS1) was 0.09111 and the “GPCR activation (heatmap value)” value (MRGPRF) was 0.6496. For the same molecule, the “GPCR activation (heatmap value)” value (NPY4R) was 0.793, the “GPCR activation (heatmap value)” value (P2RY2) was 0.0313 and the “GPCR activation (heatmap value)” value (PTGER4) was 0.5017. The “GPCR activation (heatmap value)” value (RXFP1) was -0.4212, the “GPCR activation (heatmap value)” value (S1PR3) was -0.834 and the “GPCR activation (heatmap value)” value (SCTR) was -0.3327. The “GPCR activation (heatmap value)” value (TAAR8) was 0.314, the “GPCR activation (heatmap value)” value (HRH1; HRH1, 100 µM) was 0.7784 and the “HRH1 dose-response raw reporter signal (Fig. 5b source data)” value (“HRH1 dose-response raw reporter signal” below) (HRH1; Log(10)Conc (M) -4) was 68060 and 70767. The “HRH1 dose-response raw reporter signal” value (HRH1; Log(10)Conc (M) -5) was 51882 and 55219, the “HRH1 dose-response raw reporter signal” value (HRH1; Log(10)Conc (M) -6) was 48232 and 47554 and the “HRH1 dose-response raw reporter signal” value (HRH1; Log(10)Conc (M) -7) was 45272 and 47466. For the same molecule, the “HRH1 dose-response raw reporter signal” value (HRH1; Log(10)Conc (M) -8) was 44320 and 47843, the “HRH1 dose-response raw reporter signal” value (HRH1; Log(10)Conc (M) -9) was 43919 and 48335 and the “HRH1 dose-response raw reporter signal” value (HRH1; Log(10)Conc (M) -10) was 42578 and 45208. For the same molecule, the “HRH1 dose-response raw reporter signal” value (HRH1; Log(10)Conc (M) -11) was 43999 and 46555, the “HRH1 dose-response raw reporter signal” value (HRH1; Log(10)Conc (M) -12) was 42215 and 46142 and the “HRH1 dose-response raw reporter signal” value (HRH1; Log(10)Conc (M) -13) was 45172 and 46997. For the same molecule, the “HRH1 dose-response raw reporter signal” value (HRH1; Log(10)Conc (M) -14) was 41526 and 48557, the “HRH1 dose-response raw reporter signal” value (HRH1; Log(10)Conc (M) -15) was 37080 and 42401 and the “GPCR activation (heatmap value)” value (HRH2; HRH2, 100 µM) was -0.4047. The “HRH2 dose-response raw reporter signal (Fig. 5b source data)” value (HRH2; Log(10)Conc (M) -4) was 18 and 44 and 35 and the “HRH2 dose-response raw reporter signal (Fig. 5b source data)” value (HRH2; Log(10)Conc (M) -5) was 83 and 74 and 44.
